Measurements reported in patent US8552011B2, “6-(C2-6alkylseleno)purines and methods for treating neural measles viral infection therewith” (priority 2008, dated 2013).

Experiments:
[1] = tested on: measles virus strain Edmonston (MV-E); experiment: Anti-viral screening, syncytia formation in infected HeLa cells; assay type: cell-based
Description: (§1) Viruses: Two strains of measles virus (MV) were evaluated in this study: 1) strain Edmonston (MV-E), the prototypical lab-adapted strain originally derived from the blood of a human patient in the acute phase of a typical infection, and 2) strain Halle (MV-H), a neurovirulent strain derived from a lymph node biopsy of a human patient with subacute sclerosing panencephalitis. One strain of herpes simplex virus (HSV) was evaluated: HSV-2 (strain G). This strain is a primary isolate derived from an active genital infection.
(§2) Infection conditions: Cells (4×10^4 cells/well) were seeded in 24-well culture plates and pre-treated with ESP for 24 hr prior to infection. Cells were incubated with 100 μl of MV at the indicated MOI for 1 h at 37° C. before conditioned media containing the test compound and 5% FCS was replaced for the assay duration. MV replication was evaluated daily by microscopic analysis until cells were stained with 0.1% cresyl violet dye and scored for cytopathic effects. Similar conditions were employed for HSV-2 with the exception that infections were performed at 35° C. over a test period of 72 h.

[2] = tested on: measles virus strain Halle (MV-H); experiment: as above; assay type: cell-based; settings: for reduction of syncytia formation: MV-H infected HeLa cells
Description: as §1, §2

HeLa cells [3] = experiment: MTT tetrazole reduction assay, acute toxicity; assay type: cell-based, human; settings: 24 h incubation, 65, 10, 1, 0.1, 0.01, 0.001 ng/ml, 0.1% DMSO
From the text: (§3) Cells and cell culture: HeLa cells (human cervical carcinoma) were used for these studies. Cells were maintained in DMEM medium supplemented with 10% fetal calf serum (FCS) and antibiotics in a humidified, 5% CO2 environment. Cells were passaged as required by trypsinization.
(§4) Evaluation of toxicity: Acute toxicity was quantified using a standard tetrazole reduction assay as a measure of cell proliferation/viability. Briefly, quadruplicate wells of HeLa cells (1×10^4 cells, 96-well plates) were incubated for 24 h with the ESP or DMSO as a control and the reduction of tetrazolium salt (MTT) to purple formazan by mitochondrial reductases enzymes in viable cells detected as a change in absorbance (λ=500-600 nm). Overt cytotoxicity was also evaluated qualitatively by microscopic analysis over longer exposure periods during the antiviral tests. Toxicity was considered to be evident if cell injury or loss was observed or a reduction in MTT activity of greater than twenty-five percent relative to controls was detected.
(1)—Evaluation of acute toxicity: ESP was assessed by MTT assay as described above using a series of dilutions (w/v): 65, 10, 1, 0.1, 0.01, 0.001 and 0 ng/ml. […] Toxicity was evaluated over a 24 h incubation period, a time period that corresponded to the pre-treatment phase of the anti-viral testing protocol.

HeLa cells [4] = experiment: Overt cytotoxicity by microscopic analysis during the antiviral tests; assay type: cell-based, human; settings: for toxic effects: by 72 h PI
From the text: as §3, §4, §2

HSV-2 (strain G) = experiment: Anti-HSV screening, plaque formation in infected HeLa cells; assay type: cell-based, herpes simplex virus; settings: HSV-2, MOI 1, 0.1, 0.01, ESP 1, 0.5, 0.25, 0.1 μg/ml, 72 h
Description: as §1, §2
(4)—Anti-HSV screening: ESP was evaluated at 1, 0.5. 0.25, 0.1 and 0 μg/ml against HSV-2 at MOI=I, 0.1 and 0.01.

SMILES: CC[Se]c1ncnc2[nH]cnc12 [ESP]
- syncytia formation vs untreated controls ([1]; anti-MV screening, MOI 1.0, 0.1, 0.01, ESP 5-0.1 ng/ml as printed): did not significantly decrease syncytia formation
- syncytia formation, treated vs untreated wells ([1]; preliminary screening, MOI 1.0, 0.1, 0.01, Day 5 PI): syncytia formation did not differ between treated and untreated wells
- reduction of syncytia formation ([2]; 0.1 μg/ml ESP): 25%
- reduction of syncytia formation ([2]; 1 μg/ml ESP): 66%
- syncytia formation, treated vs vehicle controls ([2]; preliminary screening, MV-H, MOI 1.0, 0.1, 0.01, Day 5 PI): a decrease in syncytia formulation was evident
- acute toxicity (MTT assay) (HeLa cells [3]): toxicity was not observed
- concentration usable in the absence of toxic effects (HeLa cells [4]): ≤ 1000 ng/mL
- toxic effects (HeLa cells [4]; 2.5 μg/ml): toxic effects were observed
- toxic effects (HeLa cells [4]; 5 μg/ml): toxic effects were observed
- overt cytotoxicity (HeLa cells [4]; 10 μg/ml, 72 h post-infection): overt cytotoxicity was observed
- overt cytotoxicity (HeLa cells [4]; 65 μg/ml, 24 h post-infection): overt cytotoxicity was observed
- toxicity during pre-treatment phase (HeLa cells [4]; 24 h pre-treatment before infection, 65-0.01 μg/ml): no toxicity was evident
- toxicity (HeLa cells [4]; concentrations less than or equal to 1 μg/ml, time-frames approaching one week): No toxicity was observed
- viral replication as evidenced by plaque formation, vs vehicle controls (HSV-2 (strain G)): No difference in viral replication
